Reference: PMC8476755 (Frontiers in Chemistry, 2021)
pEC50: −log10 of the molar value. Entries after “also recorded” stand apart in the source; their conditions may differ.

Target: T1, human α1β2γ2 GABAA receptors (Homo sapiens, UniProt P14867+P47870)
T1 construct: expressed in transfected cells
Test: FMP assay at GABAA receptors in HEK293 cells
Format: cell-based
Conditions: for Activity at α1β2γ2 GABAA receptors: 2 tested up to 100 µM
Text: For this purpose we chose the major GABAA receptor subtype in the brain, α1β2γ2, and used the FMP assay for functional assessment as previously reported ([Falk-Petersen et al., 2020]). This assay detects changes in membrane potential for an average cell population through changes in fluorescence of a membrane pre-equilibrated fluorescent blue dye. It therefore provides an indirect measure of activity with the advantage of being able to discern between GAT substrates and inhibitors ([Kragholm et al., 2013]; [Al-Khawaja et al., 2014]; [Kickinger et al., 2020]).
The tsA201 cell line (a transformed HEK293 cell line), the Flp-In CHO cell lines stably expressing human (h) GATs and the HEK293 cell line stably expressing human α1β2γ2 GABAA receptors have been described previously and were cultured accordingly ([Al-Khawaja et al., 2014]; [Falk-Petersen et al., 2020]). […]
The FMP assay performed on human α1β2γ2 GABAA receptors in HEK293 cells was performed as described and data analyzed accordingly ([Falk-Petersen et al., 2020]). […] Test compound solutions were prepared at 4x concentration in assay buffer and added to ligand plates pre-heated at 37°C for 10–15 min in the FLEXstation3 plate reader (Molecular Devices). After incubation, 33.3 µL test compound solution (4x) was automatically transferred to each well in the cell plate and the signal was measured for 90 s by measuring emission at 560 nm caused by excitation at 530 nm. […] Data obtained in the FMP assay are given as relative changes in fluorescence units (ΔRFU) by subtracting the average of the baseline fluorescence signal from the peak fluorescence signal after compound addition. […] A Gaddum-Schild plot was performed according to the equation: log(dr-1) = log(B)+pA2, where B is the concentration of the inhibitor, pA2 is the negative logarithm of the dissociation constant KB, and the dose-ratio dr is equal to the EC′50/EC50, where EC′50 and EC50 are determined in the presence and absence of the different inhibitor concentrations, respectively. […]

T1 sequence (P14867 28-456): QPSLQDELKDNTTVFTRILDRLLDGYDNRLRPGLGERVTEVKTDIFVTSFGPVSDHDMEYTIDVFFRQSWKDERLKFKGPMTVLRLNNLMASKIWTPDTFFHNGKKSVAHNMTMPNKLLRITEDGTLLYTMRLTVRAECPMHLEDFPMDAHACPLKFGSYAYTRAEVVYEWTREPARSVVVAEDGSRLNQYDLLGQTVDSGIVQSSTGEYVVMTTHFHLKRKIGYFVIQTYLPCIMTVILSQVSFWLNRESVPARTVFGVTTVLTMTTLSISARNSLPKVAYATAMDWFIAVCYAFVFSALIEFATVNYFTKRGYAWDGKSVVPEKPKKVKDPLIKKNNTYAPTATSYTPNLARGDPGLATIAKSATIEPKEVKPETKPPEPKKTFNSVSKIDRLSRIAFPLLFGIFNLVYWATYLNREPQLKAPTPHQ
T1 sequence (P47870 25-512 limits assumed): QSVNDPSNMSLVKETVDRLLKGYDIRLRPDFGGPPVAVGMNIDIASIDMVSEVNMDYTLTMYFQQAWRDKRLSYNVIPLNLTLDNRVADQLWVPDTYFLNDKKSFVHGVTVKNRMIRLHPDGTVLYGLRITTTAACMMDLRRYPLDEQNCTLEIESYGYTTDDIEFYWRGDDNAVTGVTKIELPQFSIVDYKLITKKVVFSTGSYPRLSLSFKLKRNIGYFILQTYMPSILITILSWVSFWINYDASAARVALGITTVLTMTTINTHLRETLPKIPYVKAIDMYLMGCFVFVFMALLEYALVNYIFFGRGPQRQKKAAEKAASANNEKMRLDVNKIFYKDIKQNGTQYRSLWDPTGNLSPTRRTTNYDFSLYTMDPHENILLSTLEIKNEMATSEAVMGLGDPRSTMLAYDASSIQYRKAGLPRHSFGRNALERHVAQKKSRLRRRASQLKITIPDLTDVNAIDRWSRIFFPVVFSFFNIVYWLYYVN
T1 sequence (P18507 40-475 partner): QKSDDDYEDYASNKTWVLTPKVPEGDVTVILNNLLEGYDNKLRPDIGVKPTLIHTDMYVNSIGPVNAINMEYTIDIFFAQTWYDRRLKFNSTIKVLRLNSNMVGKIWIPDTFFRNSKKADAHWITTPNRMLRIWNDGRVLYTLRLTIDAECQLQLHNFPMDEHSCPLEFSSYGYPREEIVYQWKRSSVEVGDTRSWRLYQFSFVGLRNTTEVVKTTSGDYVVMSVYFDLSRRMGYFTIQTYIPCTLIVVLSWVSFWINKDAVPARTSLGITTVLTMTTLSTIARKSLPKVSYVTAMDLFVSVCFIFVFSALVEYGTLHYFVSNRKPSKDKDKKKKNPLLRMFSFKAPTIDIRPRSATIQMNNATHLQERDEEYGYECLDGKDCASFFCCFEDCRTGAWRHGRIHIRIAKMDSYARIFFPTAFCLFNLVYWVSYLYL

Row | Compound | Activity at α1β2γ2 GABAA receptors | pEC50 (agonist activity, HEK293 cells)
1 | N[C@@]12CC[C@H](C(=O)O)[C@@H]1C2 [bicyclo-GABA, (1S,2S,5R)-5-aminobicyclo[3.1.0]hexane-2-carboxylic acid] | low micromolar agonistic activity | 5.29
2 | CN[C@@]12CC[C@H](C(=O)O)[C@@H]1C2 [compound 2] | completely devoid of activity; also recorded: inactive | –
